The assay concerns TUBO tumor cells. Description: Subcutaneous TUBO tumor growth in BALB-neuT mice. The assay is classed as in vivo. Details: key to Subcutaneous tumor volumes: tumor volume in mm3. To be noted: for Subcutaneous tumor volumes: BALB-neuT mice, individual animals, with control vaccine and isotype control monoclonal antibody, listed as IDO1 inhibitor, in mm³. How it is done: BALB-neuT mice were implanted on study day 0 with TUBO tumor cells by subcutaneous injection. Mice were dosed with 200 mg/Kg of 3-(5-fluoro-1H-indol-3-yl)pyrrolidine-2,5-dione (IDO1 inhibitor) or vehicle twice daily from study day 7 using oral gavage. Comparator groups were sham dosed with vehicle from study day 7 onwards. Appropriated mice were immunized on study day 10 with 1e10 Viral Particles of an adenovirus vector engineered to express rat HER2 (rHER2) (rHER2 vaccine) or vector lacking the rHER2 transgene (control vaccine), by intramuscular injection. Subsequently, 250 ug of an anti-CTLA4 antibody (murine monoclonal antibody to CTLA-4, clone 9D9) or an IgG2 isotype control monoclonal antibody was injected subcutaneously in close proximity to lymph nodes draining the site of adenovirus vector injection. Every two weeks thereafter, mice were immunized with 100 ug of a DNA plasmid encoding rHER2 (rHER2 vaccine) or a DNA plasmid lacking the rHER2 transgene (control vaccine) by electroporation. Subsequent to the DNA plasmid administration, 250 ug of the anti-CTLA4 antibody was injected subcutaneously in close proximity to lymph nodes draining the site of DNA plasmid injection. To track tumor progression, subcutaneous tumor volumes were measured twice a week throughout the study. Animals with subcutaneous tumor volumes that reached 2000 mm3 or displaying irreversible signs of disease were euthanized.

“And” between values parts separate entries of the source, which are not always exact repeats. Equal entries are not always repeated.

In the case of `O=C1CC(c2c[nH]c3ccc(F)cc23)C(=O)N1` (stereo not drawn) [001 inhibitor, 3-(5-fluoro-1H-indol-3-yl)pyrrolidine-2,5-dione], the “tumor growth rates (subcutaneous tumor volumes), in words” value (BALB-neuT mice with TUBO tumors, IDO1 inhibitor 200 mg/Kg twice daily oral, anti-CTLA4 250 ug s.c., rHER2 adenovirus then DNA) is reported as “No effect on tumor growth rates”. Besides, the Subcutaneous tumor volumes reads like this: (Study Day 18) 87.17 and 43.33 and 77.07 and 67.44 and 136.82 and 73.84 and 62.25 and 84.25 and 115.90 and 47.77 and 40.28 and 81.38 and 130.43; (Study Day 21) 91.03 and 64.93 and 113.76 and 113.10 and 163.91 and 75.81 and 78.22 and 89.04 and 182.85 and 58.23 and 54.88 and 135.90 and 127.97; (Study Day 24) 161.46 and 92.35 and 169.45 and 127.09 and 198.49 and 100.08 and 101.79 and 140.26 and 284.27 and 88.35 and 55.22 and 110.30 and 155.81; (Study Day 27) 163.11 and 110.42 and 171.37 and 129.44 and 240.05 and 125.82 and 123.19 and 186.49 and 361.01 and 112.48 and 80.13 and 147.33 and 241.15; (Study Day 32) 252.04 and 173.28 and 301.94 and 202.21 and 337.79 and 251.57 and 194.14 and 275.98 and 541.91 and 153.38 and 110.90 and 184.76 and 321.37; (Study Day 35) 324.53 and 260.28 and 306.58 and 377.96 and 401.70 and 262.56 and 246.60 and 364.82 and 598.92 and 209.97 and 141.15 and 244.33 and 521.30. The Subcutaneous tumor volumes was 414.72 and 343.13 and 512.15 and 430.30 and 596.09 and 434.13 and 389.39 and 471.60 and 671.98 and 338.06 and 192.15 and 328.32 and 572.30 (Study Day 39); 603.00 and 408.33 and 574.86 and 574.25 and 680.54 and 551.64 and 463.99 and 601.50 and 820.44 (Study Day 42).

(Values after patent US10251944B2, “Cancer vaccines” (Pfizer Inc., priority 2016, dated 2019).)
